# Measured values: ChEMBL document CHEMBL1201862, “PubChem BioAssay data set” (2004)
#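 In this assay, cells in 96-well plates receive the compound at five concentrations for 48 hours. Endpoints are linearly interpolated between the surrounding concentrations. The concentration for 50% growth inhibition is given as GI50.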 Active and inactive are the calls of the source. Cut-off read from the data, not from the text of the source: active = GI50 up to about 1.1 µM and inactive = higher.
# What was measured:
# Assay in all cases: growth of human tumour cells (NCI), 48 h
# 786-0 = test system: 786-0
# A498 = test system: A498
# A549 = test system: A549
# ACHN = test system: ACHN
# CAKI-1 = test system: CAKI-1
# COLO 205 = test system: COLO 205
# DLD-1 = test system: DLD-1
# DMS-114 = test system: DMS-114
# DMS-273 = test system: DMS-273
# EKVX = test system: EKVX
# HCC 2998 = test system: HCC 2998
# HCT-116 = test system: HCT-116
# HCT-15 = test system: HCT-15
# HOP-18 = test system: HOP-18
# HOP-62 = test system: HOP-62
# HT-29 = test system: HT-29
# IGROV-1 = test system: IGROV-1
# K562 = test system: K562
# KM-20L2 = test system: KM-20L2
# KM12 = test system: KM12
# LOX IMVI = test system: LOX IMVI
# LXFL 529 = test system: LXFL 529
# M14 = test system: M14
# M19-MEL = test system: M19-MEL
# MOLT-4 = test system: MOLT-4
# Malme-3M = test system: Malme-3M
# NCI-H23 = test system: NCI-H23
# NCI-H460 = test system: NCI-H460
# NCI-H522 = test system: NCI-H522
# OVCAR-3 = test system: OVCAR-3
# OVCAR-4 = test system: OVCAR-4
# OVCAR-5 = test system: OVCAR-5
# OVCAR-8 = test system: OVCAR-8
# RPMI-8226 = test system: RPMI-8226
# RXF 393 = test system: RXF 393
# SF-268 = test system: SF-268
# SF-295 = test system: SF-295
# SF-539 = test system: SF-539
# SK-MEL-28 = test system: SK-MEL-28
# SK-MEL-5 = test system: SK-MEL-5
# SK-OV-3 = test system: SK-OV-3
# SN12C = test system: SN12C
# SNB-19 = test system: SNB-19
# SNB-75 = test system: SNB-75
# SNB-78 = test system: SNB-78
# SR = test system: SR
# SW-620 = test system: SW-620
# TK-10 = test system: TK-10
# U-251 = test system: U-251
# UACC-257 = test system: UACC-257
# UACC-62 = test system: UACC-62
# UO-31 = test system: UO-31
# XF498 = test system: XF498
# CCRF-CEM = test system: CCRF-CEM
# SK-MEL-2 = test system: SK-MEL-2
# HL-60 = test system: HL-60
# HOP-92 = test system: HOP-92
# NCI-H226 = test system: NCI-H226
smiles,measurement,setting,value
Clc1ccc(C2=Nc3ccccc3SC(c3cccs3)C2)cc1 (configuration not stated),GI50,786-0,16.3 µM (inactive)
same,GI50,A498,14.9 µM (inactive)
same,GI50,A549,17.2 µM (inactive)
same,GI50,ACHN,15.3 µM (inactive)
same,GI50,CAKI-1,15.5 µM (inactive)
same,GI50,COLO 205,17.4 µM (inactive)
same,GI50,DLD-1,10.1 µM (inactive)
same,GI50,DMS-114,15.2 µM (inactive)
same,GI50,DMS-273,14 µM (inactive)
same,GI50,EKVX,17.5 µM (inactive)
same,GI50,HCC 2998,17 µM (inactive)
same,GI50,HCT-116,7.67 µM (inactive)
same,GI50,HCT-15,14 µM
same,GI50,HOP-18,18.6 µM (inactive)
same,GI50,HOP-62,18.2 µM (inactive)
same,GI50,HT-29,14.3 µM (inactive)
same,GI50,IGROV-1,14 µM (inactive)
same,GI50,K562,5.16 µM (inactive)
same,GI50,KM-20L2,16.6 µM (inactive)
same,GI50,KM12,10.7 µM (inactive)
same,GI50,LOX IMVI,7.19 µM (inactive)
same,GI50,LXFL 529,17.5 µM (inactive)
same,GI50,M14,16.4 µM (inactive)
same,GI50,M19-MEL,15.2 µM (inactive)
same,GI50,MOLT-4,20.9 µM (inactive)
same,GI50,Malme-3M,> 10 µM (inactive)
same,GI50,NCI-H23,14.1 µM (inactive)
same,GI50,NCI-H460,15 µM (inactive)
same,GI50,NCI-H522,18.1 µM (inactive)
same,GI50,OVCAR-3,11.5 µM (inactive)
same,GI50,OVCAR-4,14 µM (inactive)
same,GI50,OVCAR-5,14.5 µM (inactive)
same,GI50,OVCAR-8,16.2 µM (inactive)
same,GI50,RPMI-8226,2.42 µM (inactive)
same,GI50,RXF 393,10.7 µM (inactive)
same,GI50,SF-268,16.3 µM (inactive)
same,GI50,SF-295,15 µM (inactive)
same,GI50,SF-539,16.8 µM (inactive)
same,GI50,SK-MEL-28,17.6 µM (inactive)
same,GI50,SK-MEL-5,16.5 µM (inactive)
same,GI50,SK-OV-3,16.8 µM (inactive)
same,GI50,SN12C,15.6 µM (inactive)
same,GI50,SNB-19,16.4 µM (inactive)
same,GI50,SNB-75,16.9 µM (inactive)
same,GI50,SNB-78,28.9 µM (inactive)
same,GI50,SR,2.43 µM (inactive)
same,GI50,SW-620,13.1 µM (inactive)
same,GI50,TK-10,17.3 µM (inactive)
same,GI50,U-251,11.8 µM (inactive)
same,GI50,UACC-257,15.7 µM (inactive)
same,GI50,UACC-62,15.3 µM (inactive)
same,GI50,UO-31,13.6 µM (inactive)
same,GI50,XF498,16.1 µM (inactive)
COc1ccc2c(c1)CC1NC2Cc2ccccc21 (configuration not stated),GI50,786-0,> 100 µM (inactive)
same,GI50,A498,> 100 µM (inactive)
same,GI50,A549,> 100 µM (inactive)
same,GI50,ACHN,> 100 µM (inactive)
same,GI50,CAKI-1,> 100 µM (inactive)
same,GI50,CCRF-CEM,> 100 µM (inactive)
same,GI50,COLO 205,> 100 µM (inactive)
same,GI50,DLD-1,> 100 µM (inactive)
same,GI50,DMS-114,> 100 µM (inactive)
same,GI50,EKVX,> 100 µM (inactive)
same,GI50,HCC 2998,> 100 µM (inactive)
same,GI50,HCT-116,> 100 µM (inactive)
same,GI50,HCT-15,> 100 µM
same,GI50,HOP-18,> 100 µM (inactive)
same,GI50,HOP-62,> 100 µM (inactive)
same,GI50,HT-29,> 100 µM (inactive)
same,GI50,IGROV-1,> 100 µM (inactive)
same,GI50,K562,> 100 µM (inactive)
same,GI50,KM-20L2,> 100 µM (inactive)
same,GI50,KM12,> 100 µM (inactive)
same,GI50,LXFL 529,> 100 µM (inactive)
same,GI50,M14,> 100 µM (inactive)
same,GI50,M19-MEL,> 100 µM (inactive)
same,GI50,MOLT-4,> 100 µM (inactive)
same,GI50,Malme-3M,> 100 µM (inactive)
same,GI50,NCI-H23,> 100 µM (inactive)
same,GI50,NCI-H460,> 100 µM (inactive)
same,GI50,NCI-H522,> 100 µM (inactive)
same,GI50,OVCAR-3,> 100 µM (inactive)
same,GI50,OVCAR-4,> 100 µM (inactive)
same,GI50,OVCAR-5,> 100 µM (inactive)
same,GI50,OVCAR-8,> 100 µM (inactive)
same,GI50,RPMI-8226,> 100 µM (inactive)
same,GI50,SF-268,> 100 µM (inactive)
same,GI50,SF-295,> 100 µM (inactive)
same,GI50,SF-539,> 100 µM (inactive)
same,GI50,SK-MEL-28,> 100 µM (inactive)
same,GI50,SK-MEL-2,> 100 µM (inactive)
same,GI50,SK-MEL-5,> 100 µM (inactive)
same,GI50,SK-OV-3,> 100 µM (inactive)
same,GI50,SN12C,> 10 µM (inactive)
same,GI50,SNB-75,> 100 µM (inactive)
same,GI50,SNB-78,> 100 µM (inactive)
same,GI50,SW-620,> 100 µM (inactive)
same,GI50,TK-10,> 100 µM (inactive)
same,GI50,U-251,> 100 µM (inactive)
same,GI50,UACC-257,> 100 µM (inactive)
same,GI50,UACC-62,> 100 µM (inactive)
same,GI50,UO-31,> 100 µM (inactive)
same,GI50,XF498,> 100 µM (inactive)
COc1c2nc(CCl)[nH]c(=O)c2c(OC)c2nc(CCl)[nH]c(=O)c12,GI50,786-0,> 100 µM (inactive)
same,GI50,A549,> 100 µM (inactive)
same,GI50,ACHN,> 100 µM (inactive)
same,GI50,CAKI-1,> 100 µM (inactive)
same,GI50,CCRF-CEM,> 100 µM (inactive)
same,GI50,COLO 205,> 100 µM (inactive)
same,GI50,DLD-1,> 100 µM (inactive)
same,GI50,DMS-114,> 100 µM (inactive)
same,GI50,DMS-273,> 100 µM (inactive)
same,GI50,HCT-116,> 100 µM (inactive)
same,GI50,HCT-15,> 100 µM
same,GI50,HL-60,> 100 µM (inactive)
same,GI50,HOP-18,> 100 µM (inactive)
same,GI50,HOP-62,> 100 µM (inactive)
same,GI50,HOP-92,> 100 µM (inactive)
same,GI50,HT-29,> 100 µM (inactive)
same,GI50,IGROV-1,> 100 µM (inactive)
same,GI50,K562,> 100 µM (inactive)
same,GI50,KM-20L2,> 100 µM (inactive)
same,GI50,KM12,> 100 µM (inactive)
same,GI50,LOX IMVI,> 100 µM (inactive)
same,GI50,LXFL 529,> 100 µM (inactive)
same,GI50,M14,> 100 µM (inactive)
same,GI50,M19-MEL,> 100 µM (inactive)
same,GI50,MOLT-4,> 100 µM (inactive)
same,GI50,Malme-3M,> 100 µM (inactive)
same,GI50,NCI-H226,> 100 µM (inactive)
same,GI50,NCI-H23,> 100 µM (inactive)
same,GI50,NCI-H460,> 100 µM (inactive)
same,GI50,NCI-H522,> 100 µM (inactive)
same,GI50,OVCAR-3,> 100 µM (inactive)
same,GI50,OVCAR-4,> 100 µM (inactive)
same,GI50,OVCAR-5,> 100 µM (inactive)
same,GI50,OVCAR-8,> 100 µM (inactive)
same,GI50,RPMI-8226,> 100 µM (inactive)
same,GI50,RXF 393,> 100 µM (inactive)
same,GI50,SF-268,> 100 µM (inactive)
same,GI50,SF-295,> 100 µM (inactive)
same,GI50,SF-539,> 100 µM (inactive)
same,GI50,SK-MEL-28,> 100 µM (inactive)
same,GI50,SK-MEL-2,> 100 µM (inactive)
same,GI50,SK-MEL-5,> 100 µM (inactive)
same,GI50,SK-OV-3,> 100 µM (inactive)
same,GI50,SN12C,> 100 µM (inactive)
same,GI50,SNB-19,> 100 µM (inactive)
same,GI50,SNB-75,> 100 µM (inactive)
same,GI50,SNB-78,> 100 µM (inactive)
same,GI50,SW-620,> 100 µM (inactive)
same,GI50,TK-10,> 100 µM (inactive)
same,GI50,U-251,> 100 µM (inactive)
same,GI50,UACC-257,> 100 µM (inactive)
same,GI50,UACC-62,> 100 µM (inactive)
same,GI50,UO-31,> 100 µM (inactive)
same,GI50,XF498,> 100 µM (inactive)
